# Patent US10849935B2, “Method to suppress the systemic toxicity of chemotherapeutic drugs” (United Arab Emirates University, priority 2013, dated 2020)
# “And” between values parts separate entries of the source, which are not always exact repeats. Equal entries are not always repeated. Where two headings read alike, the source gives them in different places.
# How the values were obtained:
# B16.F1 cells = assay: Annexin V-FITC / PI flow cytometry (apoptosis); type: cell-based, mouse; conditions: taxol 10 ng/ml, 24 hr
# Text: The results are representative of three independent experiments.
# B16.F1 melanoma cells = assay: Cell viability, CellTiter-Glo luminescent assay, B16.F1
# Method: Skin cancer cells (B16.F1 cell line) (FIGS. 1A-1C), colon cancer cells (CT26 cell line) (FIGS. 1D, 1E) and breast cancer cells (MCF-7 cell line) (FIGS. 1F, 1G) were plated at 5×10^3 cells per well and incubated for 24 hr (FIGS. 1A, 1D, 1F), 48 hr (FIG. 1B) or 72 hr (FIGS. 1C, 1E, 1G) in the absence or presence of the indicated concentrations of manuka honey (range 0.3% to 5.0% w/v), or taxol (10 ng/ml or 50 ng/ml final concentration). At the end of the incubation period, cell viability was determined using CellTiter-Glo luminescent assay. Results are expressed as percentage viability in treated cell cultures compared to control, untreated, cells and are representative of 3 (for B16.F1 cells) or 2 (for CT26 and MCF-7 cells) independent experiments. Asterisks denote statistically significant differences in viability of experimental groups compared to control (*, p<0.05; **, p<0.01; ***, p<0.001).
# The potential effect of manuka honey on cancer cell proliferation was investigated using three tumor cell lines differing in type and origin, the murine melanoma (B16.F1) and colon carcinoma (CT26) cells and the human breast cancer (MCF-7) cell line. Cells were incubated with different concentrations of manuka honey (range 0.3 to 2.5% w/v) for 24-72 hrs. As a positive control, cells were cultured with taxol at a final concentration of 10 or 50 ng/ml.
# PARP in B16.F1 cells = assay: Western blot of PARP cleavage; type: cell-based, mouse; conditions: taxol 50 ng/ml, 24 hr
# Method: (§1) FIGS. 4A-4C. Manuka honey induces late apoptotic events in cancer cells. FIG. 4A. B16.F1 cells were incubated for 24 hr or 72 hr in the absence or presence of Manuka honey (M; 5%) or taxol (T; 50 ng/ml). Whole cell extracts (100 μg/lane) were resolved on 10% SDS-PAGE followed by Western blotting with an antibody specific to Bcl-2. FIG. 4 B. Cells were treated for 24 hr or 72 hr with the indicated concentrations of manuka honey (0.6%-5.0%) or taxol (50 ng/ml). Whole cell extracts (100 μg/lane) were resolved on 10% SDS-PAGE followed by Western blotting with a PARP-specific antibody. The full-length (116 kD) and cleaved (89 kD) forms of PARP are indicated. The cell extracts were also probed with an antibody against β-actin as a control for loading. FIG. 4C. Following treatment for 72 hr, cells were lysed and DNA extracted by centrifugation and phenol-chloroform extraction. Extracted DNA was resolved on 1.5% agarose gel and stained with ethidium bromide to visualize the oligonucleosomal fragments. The results are representative of two independent experiments.
# One of the target proteins for active caspase-3 is the DNA repair enzyme poly(ADP-ribose) polymerase (or PARP). […]
# [1] = test system: caspase 3/7 in B16.F1 melanoma cells; assay: Caspase 3/7 enzymatic activity in treated cells; type: cell-based, mouse; conditions: paclitaxel 10 ng/ml, 24 hr
# Method: (§2) B16.F1 melanoma cells were treated with manuka honey (5% w/v), taxol (10 or 50 ng/ml) or medium as control. After 24 hr of culture, enzymatic activity of caspase 3/7 (FIG. 3A) and caspase 8 (FIG. 3B) were determined using specific kits and following manufacturer's recommendation. The data is presented as fold increase in caspase activity after normalization to the number of viable cells per culture. FIG. 3C. Western blot analysis of caspase-9 activation B16.F1 cells treated with manuka honey or taxol. […] Protein extracts were resolved on 10% SDS-PAGE and immunoblotted with caspase-9-specific ployclonal antibody capable of detecting both full length and cleaved forms of caspase-9. The cell extracts were also probed with an antibody against β-actin as a control for protein loading.
# (§3) A critical component for the initiation of the apoptosis pathway is the sequential recruitment of a number of caspases leading to the activation of the effector caspase-3. This, in turn, leads to the cleavage of a number of vital cellular substrates required for cell viability. Next explored was the mechanism of apoptosis induction in manuka honey-treated cancer cells.
# B16.F1 melanoma tumor = conditions: for inhibition of tumor growth vs saline control: day 18 post treatment
# Method: The activity of manuka honey was evaluated in B16.F1 melanoma tumor model. Mice were divided in four groups and treated by intravenous administration (100-200 μl 2 times per week for up to 3 weeks) of manuka honey alone, at either 5%, 10% or 20% w/v, or saline as a control. Tumor volume and animal survival were followed for up to 3 weeks post treatment initiation.
# The antitumor activity of manuka honey was evaluated in the syngeneic B16.F1 melanoma tumor model. C57BL/6 mice with established tumors (mean>50 mm3) were divided into four groups and treated by intravenous administration (2 times per week for up to 3 weeks) of manuka honey alone (50% w/v), taxol alone (10 mg/kg), manuka honey (50% w/v) plus taxol (10 mg/kg) or saline as a control. Tumor volume and animal survival were followed for up to 3 weeks post treatment initiation. […] The effect of the various treatments on animal survival was also followed (FIG. 8B).
# C57BL/6 mice with established tumors (mean>50 mm^3) were divided into four groups and treated by intravenous administration (2 times per week for up to 3 weeks) of manuka honey alone (50% w/v), taxol alone (5 mg/kg), manuka honey (50% w/v) plus taxol (5 mg/kg) or saline as a control. Tumor volume and animal survival were followed for up to 3 weeks post treatment initiation.
# In a further experiment the mice were divided into four groups and treated by intravenous administration (2 times per week for up to 3 weeks) of manuka honey alone (50% w/v), taxol alone (8 mg/kg), manuka honey (50% w/v) plus taxol (8 mg/kg) or saline as a control. Tumor volume and animal survival were followed for up to 3 weeks post treatment initiation.
# One syngeneic tumor model was used in this study, namely the B16.F1 melanoma (skin cancer) model. […] The procedure for tumor implantation is briefly as follows, C57BL/6 (8-10 mice per group) were inoculated subcutaneously in the right flank with 2×10^5 B16.F1 melanoma cells and staged to day 12-14.
# Tumor growth was followed by quantitative determination of tumor volume, measured as the product of the perpendicular diameters using digital calipers, according to the formula: volume=L×W^2/2. For the B16.F1 model, once tumors were established, mice were given intravenous (i.v.) doses (100 μl per injection) of (1) saline (control), (2) 50% (w/v) manuka honey (MH) suspension in sterile saline, (3) paclitaxel (at doses of 5 or 8 mg/kg body weight) or (4) MH (50% w/v)+paclitaxel. All treatments were routinely administered twice per week, using freshly prepared reagents. Tumor growth and animal survival were followed for the subsequent 50 days.
# Bcl-2 in B16.F1 cells = assay: Western blot of Bcl-2 expression; type: cell-based, mouse; conditions: taxol 50 ng/ml
# Method: as §1
# Bcl-2 is a member of a large family of cell survival-regulating proteins consisting of both proand anti-apoptotic regulators. […] Therefore the level of Bcl-2 expression in B16.F1 cells following treatment with manuka honey or taxol was determined.
# [2] = test system: caspase 8 in B16.F1 melanoma cells; assay: Caspase 8 enzymatic activity in treated cells; type: cell-based, mouse; conditions: paclitaxel 10 ng/ml, 24 hr
# Method: as §2, §3
# [3] = test system: caspase 3-positive (apoptotic) tumor cells; assay: Caspase 3 immunohistochemistry of tumor sections; type: in vivo; conditions: tumors of treated melanoma-bearing mice, mean±SEM
# Method: Tumor tissue sections were prepared after treatment with saline (FIG. 11A), manuka honey (FIG. 11B), paclitaxel (FIG. 11C) or manuka honey+paclitaxel (FIG. 11D) and stained using caspase 3-specific antibody. Representative images at high magnification (bar=50 μm) are shown. Arrows indicate representative, brown-staining, apoptotic cells. Necrotic regions are also indicated (n). The results are representative of two independent experiments. (FIG. 11E) Quantitative estimation of the number of caspase-3 positive cells in tumor sections of different treatment groups. The data is shown as the mean±SEM of the number of positive cells per high power field. Tumors were obtained from 2-3 mice per treatment group and multiple sections were made from each tumor tissue. The number of positive cells was determined by counting the number of cells in 20 high power fields per section.
# Tumor tissue sections were prepared from tumors obtained from animals treated with manuka honey, paclitaxel, manuka honey plus paclitaxel or saline as control. […] By counting the number of caspase 3-positive cells in a random selection of 10-20 high power fields (hpf), a quantitative estimate of apoptotic cell number could be achieved.
# [4] = test system: glutathione (GSH) in liver, spleen and kidney; conditions: 2 injections per week for 3 weeks
# Method: Animals were treated with saline, paclitaxel, manuka honey or manuka honey plus paclitaxel. At the end of a 3-week treatment, animals were sacrificed and organs removed for toxicity determination. The levels of glutathione (GSH) in the liver (FIG. 12A) spleen (FIG. 12B) and kidney (FIG. 12C) were determined. The data represent the mean±SEM of a minimum of 3 determinations per experimental group. For all panels, asterisks denote significant differences between the indicated groups (*, p<0.05; **, p<0.01; ***, p<0.001).
# Groups of mice were injected with manuka honey, paclitaxel, manuka honey plus paclitaxel or saline for a total period of 3 weeks (2 injections per week). The animals were then sacrificed and their organs (liver, spleen, and kidney) obtained and analyzed for the levels of glutathione (GSH), a major antioxidant effector.
# [5] = test system: caspase-9 in B16.F1 cells; assay: Western blot of caspase-9 activation; type: cell-based, mouse; conditions: paclitaxel 10 ng/ml, 24 hr
# Method: as §2
# [6] = test system: 4T1 metastatic breast cancer; assay: 4T1 metastatic breast adenocarcinoma model: growth and survival; type: in vivo, BALB/c mice
# Method: Two different syngeneic tumor models were used in this study, namely, MC38 colorectal cancer and 4T1 metastatic breast adenocarcinoma.
# For the 4T1 breast cancer cells, BALB/c mice were implanted orthotopically in the mammary fat pad with 1×10^6 cancer cells/mouse.
# For the colon and breast cancer models, mice bearing tumors were treated with (1) saline (control), (2) manuka honey (50% w/v), (3) Oxaliplatin at 6 mg/kg or (4) manuka honey (50% w/v)+Oxaliplatin (6 mg/kg). The manuka honey (50% w/v) was given intravenously (i.v.) twice per week. Oxaliplatin 6 mg/kg was administered intraperitoneally (i.p.) once per week. The total treatment period was 3 weeks.
# [7] = manuka honey 50% w/v, taxol 10 mg/kg, i.v. 2 times per week
structure (smiles),measurement,setting,value
"CC(=O)O[C@H]1C(=O)[C@@]2(C)[C@H]([C@H](OC(=O)c3ccccc3)[C@]3(O)C[C@H](OC(=O)[C@H](O)[C@@H](NC(=O)c4ccccc4)c4ccccc4)C(C)=C1C3(C)C)[C@]1(OC(C)=O)CO[C@@H]1C[C@@H]2O [taxol, paclitaxel]",Annexin V-positive (apoptotic) cells,B16.F1 cells,32.8%
same,"late apoptotic cells (positive for both Annexin V-FITC and PI), % of total",B16.F1 cells,3.9%
same,"viability of B16.F1 cells, % of control","B16.F1 melanoma cells; taxol 10 ng/ml, 24 hrs",90%
same,"viability of B16.F1 cells, % of control","B16.F1 melanoma cells; taxol 10 ng/ml, 72 hrs",64%
same,"viability of B16.F1 cells, % of control","B16.F1 melanoma cells; taxol 50 ng/ml, 24 hrs",83%
same,"viability of B16.F1 cells, % of control","B16.F1 melanoma cells; taxol 50 ng/ml, 72 hrs",34%
same,cleavage of PARP into the 89 kD fragment,PARP in B16.F1 cells,cleavage of PARP into the 89 kD fragment was evident
same,increase in caspase 3/7 activity,[1],2 fold
same,inhibition of tumor growth vs saline control,B16.F1 melanoma tumor; [7],~61%
same,inhibition of tumor growth vs saline control,"B16.F1 melanoma tumor; manuka honey 50% w/v, taxol 10 mg/kg, i.v. 2 times per week, listed as paclitaxel",60% and 61%
same,survival of tumor-bearing mice,"B16.F1 melanoma tumor; day 25, paclitaxel 5 mg/kg, MH 50% w/v",no significant difference in animal survival
same,percentage survival,"B16.F1 melanoma tumor; day 25, paclitaxel 8 mg/kg, manuka honey 50% w/v",36% and 36.4%
same,overall survival at end of observation period,"B16.F1 melanoma tumor; day 25 post treatment, manuka honey 50% w/v, taxol 10 mg/kg",20%
same,day after initiation of treatment at which inhibition/delay of tumor growth was first observed,B16.F1 melanoma tumor; [7],7 days
same,effect on tumor growth (FIG. 13),"B16.F1 melanoma tumor; paclitaxel 5 mg/kg, MH 50% w/v, i.v. twice per week",no effect of tumor growth
same,"effect on tumor growth (FIGS. 17, 18)","B16.F1 melanoma tumor; paclitaxel 8 mg/kg, MH 50% w/v, i.v. twice per week",intermediate effect on reducing tumor growth
same,median survival,"B16.F1 melanoma tumor; post treatment, manuka honey 50% w/v, taxol 10 mg/kg, i.v. 2 times per week",20 days
same,tumor volume and survival vs saline (FIG. 9),"B16.F1 melanoma tumor; taxol 5 mg/kg, manuka honey 50% w/v, i.v. 2 times per week, 14 days post-treatment",ineffective at reducing tumor volume
same,Bcl-2 expression,Bcl-2 in B16.F1 cells; 24 hr,substantially decreased
same,Bcl-2 expression,Bcl-2 in B16.F1 cells; 72 hr,undetectable
same,increase in caspase-8 activity,[2],2 fold
same,number of caspase 3-positive cells per high power field in tumor sections,[3],11.7±1.8 per hpf
same,"organ GSH levels (liver, spleen, kidney)",[4],marked decrease in organ GSH levels
same,induction of caspase-9,[5],No evidence for induction of caspase-9
O=C1[O][Pt]2([NH][C@@H]3CCCC[C@H]3[NH]2)[O]C1=O [Oxaliplatin],effect on cancer growth and animal survival,"[6]; Oxaliplatin 6 mg/kg, MH 50% w/v",only a marginal effect on cancer growth and animal survival
same,percentage survival,"[6]; day 50, Oxaliplatin 6 mg/kg i.p. once per week, manuka honey 50% w/v i.v. twice per week, 3 weeks",22%
